# Molecular target: T1, OtsA (trehalose 6-phosphate synthase; OtsA-Strep) (Corynebacterium glutamicum, UniProt Q8NMF3)
# T1 construct: gene Cgl2624; full-length OtsA with C-terminal Strep-tag kept (pASK-IBA3-otsA), expressed in E. coli BL21(DE3), Strep-Tactin purified, 53 kDa
# T1 sequence (Q8NMF3 1-485): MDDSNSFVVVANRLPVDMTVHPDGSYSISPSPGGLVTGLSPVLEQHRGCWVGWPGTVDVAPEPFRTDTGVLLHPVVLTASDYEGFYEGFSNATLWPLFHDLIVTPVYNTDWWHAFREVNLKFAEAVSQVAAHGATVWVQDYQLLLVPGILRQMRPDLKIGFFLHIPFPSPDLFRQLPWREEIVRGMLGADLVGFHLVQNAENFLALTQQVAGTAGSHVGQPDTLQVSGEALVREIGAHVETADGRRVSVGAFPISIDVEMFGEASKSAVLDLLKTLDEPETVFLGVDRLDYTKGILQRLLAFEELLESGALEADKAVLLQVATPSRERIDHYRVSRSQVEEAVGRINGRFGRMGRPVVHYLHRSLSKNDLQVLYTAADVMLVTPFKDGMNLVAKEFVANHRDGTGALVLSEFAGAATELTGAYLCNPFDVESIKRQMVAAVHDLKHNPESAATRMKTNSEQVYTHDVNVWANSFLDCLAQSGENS
# Assay: GC of trehalose after alkaline phosphatase treatment of trehalose-6-phosphate
# Format: biochemical
# Conditions: co-substrate 3 mM glucose-6-phosphate; 10 mM Tris-maleate, 5 mM MgCl2, 0.05 mM EDTA, pH 7.5, 30 °C; 3 mM or 5 mM sugar nucleotide
smiles,measurement,value
Nc1ncnc2c1ncn2[C@@H]1O[C@H](COP(=O)(O)OP(=O)(O)O[C@H]2O[C@H](CO)[C@@H](O)[C@H](O)[C@H]2O)[C@@H](O)[C@H]1O [ADP-glucose],specific activity,C. glutamicum OtsA used UDP- as well as ADP-glucose as precursor for trehalose-phosphate synthesis

# Reference: paper PMC6004087, “Production of the compatible solute α-D-glucosylglycerol by metabolically engineered Corynebacterium glutamicum” (Microbial Cell Factories, 2018)
